Test results as given in US20100021918A1, “METHOD FOR ASSAYING ACTION OF ANTITUMOR AGENT USING SPLICING DEFECTS AS INDEX” (Eisai R&D Management Co., Ltd., priority 2007, published 2010).

Tested on: peripheral blood mononuclear cells (PBMC)
Experiment: Microarray analysis (3), dose-dependent intron expression in PBMC at 3, 10, 30 nM, Table 5
Format: cell-based, human
Protocol: PBMC was suspended in RPMI1640 medium (containing 10% FBS, penicillin, and streptomycin) to 5×10^6 cells/ml and 1 ml of the suspension was plated per well of a 24-well plate. Immediately, 111 μl of 10 times-concentrated (8E,12E,14E)-7-((4-cycloheptylpiperazin-1-yl)carbonyl)oxy-3,6,16,21-tetrahydroxy-6,10,12,16,20-pentamethyl-18,19-epoxytricosa-8,12,14-trien-11-olide was added to the well (six wells per each concentration tested). The cells were then cultured in an incubator with 5% carbon dioxide gas at 37° C. Three hours later, the supernatant was collected and centrifuged at 1500 rpm for five minutes. TRI reagent (SIGMA) (1 ml) was added to each well of the plate from which the supernatant was removed to harvest the cells, which was added to the centrifuged pellet to dissolve. RNA was purified in accordance with the protocol of TRI reagent. RNA was further purified using RNeasy (QIAGEN) and, in accordance with the protocol, DNaseI was added to the samples during the procedure. Absorbance at 260 nm was measured to quantify an amount of RNA.
Ribosomal RNA was removed from 1 μg of each total RNA of control cells (n=3) and cells with the treatment (n=3) using RiboMinus Human/Mouse Transcriptome Isolation Kit (Invitrogen). Single stranded cDNA synthesis, double stranded cDNA synthesis, cRNA synthesis, second single stranded cDNA synthesis, cDNA fragmentation, and cDNA labeling in order were carried out for total RNA from which ribosomal RNA was removed, using GeneChip Whole Transcript Sense Target Labeling and Control Reagents (Affymetrix) to make a cDNA probe. Subsequently, the cDNA probe was used for hybridization with Human Exon 1.0 ST Array (Affymetrix). The array was washed and stained, and luminescence intensity was measured by a scanner.
The expression level of the probe set and the gene was quantified by using Expression Console Ver. 1.0 (Affymetrix) with Summarization Method and Normalization Method being set to “Median polish as used in RMA” and “None”, respectively. The expression level of the probe was normalized with that of the gene.
Probe sets showing that the normalized change in the level expression of the probe set in the group with the treatment at 30 nM was more than 5 times; the expression level of the probe set and the gene in the group with the treatment at 30 nM was more than 100; and probe set annotation was “extended, full, free”, were picked out. Regression analysis was performed with the probe sets extracted for the control group, the group with the treatment at 3 nM, the group with the treatment at 10 nM, and the group with the treatment at 30 nM to determine a p and q value for the slope of regression formula. A gene containing the probe sets with the q value of less than 5% was determined as a candidate gene with increased expression level of the intron regions (Table 5).
In Table 5, for the gene evaluated, gene name (Gene Name), abbreviated name (Gene Symbol), accession number (Accession), alias name (Synonym), transcription cluster number in Human Exon 1.0 ST Array (Human Exon 1.0 ST Array Transcription Cluster ID), chromosome number (Chromosome), type of strand (Strand), start region (Start), stop region (Stop), and change in expression level per 1 nM (Fold Change/nM) were respectively shown.

SMILES: CCC(O)C(C)C1OC1CC(C)(O)/C=C/C=C(\C)C1OC(=O)CC(O)CCC(C)(O)C(OC(=O)N2CCN(C3CCCCCC3)CC2)/C=C/C1C (stereo not shown) [E7107, (8E,12E,14E)-7-((4-cycloheptylpiperazin-1-yl)carbonyl)oxy-3,6,16,21-tetrahydroxy-6,10,12,16,20-pentamethyl-18,19-epoxytricosa-8,12,14-trien-11-olide]
- Fold Change/nM (gene ABCC1, intron expression, 3, 10, 30 nM): 1.05 nM⁻¹
- Fold Change/nM (gene ADAR introns, regression over control, 3, 10, 30 nM): 1.05 nM⁻¹
- Fold Change/nM (gene AMPD3 // PPARA // TRMU // GTSE1, intron expression, 3, 10, 30 nM): 1.05 nM⁻¹
- Fold Change/nM (gene ANKH introns, regression over control, 3, 10, 30 nM): 1.05 nM⁻¹
- Fold Change/nM (gene ARF1 introns, regression over control, 3, 10, 30 nM): 1.05 nM⁻¹
- Fold Change/nM (gene ARHGDIB introns, regression over control, 3, 10, 30 nM): 1.05 nM⁻¹
- Fold Change/nM (gene ATP8A1 // PCLKC, intron expression, 3, 10, 30 nM): 1.05 nM⁻¹
- Fold Change/nM (gene AUTS2, intron expression, 3, 10, 30 nM): 1.05 nM⁻¹
- Fold Change/nM (gene BAT2D1, intron expression, 3, 10, 30 nM): 1.05 nM⁻¹
- Fold Change/nM (gene BCL9L, intron expression, 3, 10, 30 nM): 1.05 nM⁻¹
- Fold Change/nM (gene C3orf63, intron expression, 3, 10, 30 nM): 1.05 nM⁻¹
- Fold Change/nM (gene C13orf18, intron expression, 3, 10, 30 nM): 1.05 nM⁻¹
- Fold Change/nM (gene C22orf28, intron expression, 3, 10, 30 nM): 1.05 nM⁻¹
- Fold Change/nM (gene CALR, intron expression, 3, 10, 30 nM): 1.05 nM⁻¹
- Fold Change/nM (gene CAND1 introns, regression over control, 3, 10, 30 nM): 1.05 nM⁻¹
- Fold Change/nM (gene CCND2 introns, regression over control, 3, 10, 30 nM): 1.05 nM⁻¹
- Fold Change/nM (gene CDC2L5, intron expression, 3, 10, 30 nM): 1.05 nM⁻¹
- Fold Change/nM (gene CEP170 // CEP170L, intron expression, 3, 10, 30 nM): 1.05 nM⁻¹
- Fold Change/nM (gene CHST11, intron expression, 3, 10, 30 nM): 1.05 nM⁻¹
- Fold Change/nM (gene DDEF1, intron expression, 3, 10, 30 nM): 1.05 nM⁻¹
- Fold Change/nM (gene DDX3Y introns, regression over control, 3, 10, 30 nM): 1.05 nM⁻¹
- Fold Change/nM (gene DDX18 // WNT8B, intron expression, 3, 10, 30 nM): 1.05 nM⁻¹
- Fold Change/nM (gene DENND4A introns, regression over control, 3, 10, 30 nM): 1.05 nM⁻¹
- Fold Change/nM (gene DPF2, intron expression, 3, 10, 30 nM): 1.05 nM⁻¹
- Fold Change/nM (gene DRAM, intron expression, 3, 10, 30 nM): 1.05 nM⁻¹
- Fold Change/nM (gene DUSP16, intron expression, 3, 10, 30 nM): 1.05 nM⁻¹
- Fold Change/nM (gene EDD1, intron expression, 3, 10, 30 nM): 1.05 nM⁻¹
- Fold Change/nM (gene EIF3S10, intron expression, 3, 10, 30 nM): 1.05 nM⁻¹
- Fold Change/nM (gene EIF4A1 // SENP3, intron expression, 3, 10, 30 nM): 1.05 nM⁻¹
- Fold Change/nM (gene FBXO11, intron expression, 3, 10, 30 nM): 1.05 nM⁻¹
- Fold Change/nM (gene FNTA, intron expression, 3, 10, 30 nM): 1.05 nM⁻¹
- Fold Change/nM (gene FOXK2, intron expression, 3, 10, 30 nM): 1.05 nM⁻¹
- Fold Change/nM (gene FOXO3A, intron expression, 3, 10, 30 nM): 1.05 nM⁻¹
- Fold Change/nM (gene GAK, intron expression, 3, 10, 30 nM): 1.05 nM⁻¹
- Fold Change/nM (gene GDI1 introns, regression over control, 3, 10, 30 nM): 1.05 nM⁻¹
- Fold Change/nM (gene GNA12, intron expression, 3, 10, 30 nM): 1.05 nM⁻¹
- Fold Change/nM (gene GP5 // ZNF394, intron expression, 3, 10, 30 nM): 1.05 nM⁻¹
- Fold Change/nM (gene GTF3C4 introns, regression over control, 3, 10, 30 nM): 1.05 nM⁻¹
- Fold Change/nM (gene GTPBP4, intron expression, 3, 10, 30 nM): 1.05 nM⁻¹
- Fold Change/nM (gene IDI1 introns, regression over control, 3, 10, 30 nM): 1.05 nM⁻¹
- Fold Change/nM (gene IFNGR1 introns, regression over control, 3, 10, 30 nM): 1.05 nM⁻¹
- Fold Change/nM (gene KIAA0226 introns, regression over control, 3, 10, 30 nM): 1.05 nM⁻¹
- Fold Change/nM (gene KLF9 introns, regression over control, 3, 10, 30 nM): 1.05 nM⁻¹
- Fold Change/nM (gene LDLR introns, regression over control, 3, 10, 30 nM): 1.05 nM⁻¹
- Fold Change/nM (gene MAPK6, intron expression, 3, 10, 30 nM): 1.05 nM⁻¹
- Fold Change/nM (gene MKI67IP introns, regression over control, 3, 10, 30 nM): 1.05 nM⁻¹
- Fold Change/nM (gene MLL3 // ADAMTS2 // LRRK1 // BAGE3 introns, regression over control, 3, 10, 30 nM): 1.05 nM⁻¹
- Fold Change/nM (gene MLLT3, intron expression, 3, 10, 30 nM): 1.05 nM⁻¹
- Fold Change/nM (gene MTMR6 introns, regression over control, 3, 10, 30 nM): 1.05 nM⁻¹
- Fold Change/nM (gene MYD88, intron expression, 3, 10, 30 nM): 1.05 nM⁻¹
- Fold Change/nM (gene NFKB2, intron expression, 3, 10, 30 nM): 1.05 nM⁻¹
- Fold Change/nM (gene NIPBL // NRBP1 introns, regression over control, 3, 10, 30 nM): 1.05 nM⁻¹
- Fold Change/nM (gene NPAT, intron expression, 3, 10, 30 nM): 1.05 nM⁻¹
- Fold Change/nM (gene NR3C1, intron expression, 3, 10, 30 nM): 1.05 nM⁻¹
- Fold Change/nM (gene PAK2, intron expression, 3, 10, 30 nM): 1.05 nM⁻¹
- Fold Change/nM (gene PJA2 introns, regression over control, 3, 10, 30 nM): 1.05 nM⁻¹
- Fold Change/nM (gene PLEK, intron expression, 3, 10, 30 nM): 1.05 nM⁻¹
- Fold Change/nM (gene PLEKHM1, intron expression, 3, 10, 30 nM): 1.05 nM⁻¹
- Fold Change/nM (gene POLR3E introns, regression over control, 3, 10, 30 nM): 1.05 nM⁻¹
- Fold Change/nM (gene PPP1CB, intron expression, 3, 10, 30 nM): 1.05 nM⁻¹
- Fold Change/nM (gene PRKAR1A, intron expression, 3, 10, 30 nM): 1.05 nM⁻¹
- Fold Change/nM (gene PRPF4B, intron expression, 3, 10, 30 nM): 1.05 nM⁻¹
- Fold Change/nM (gene PSEN1, intron expression, 3, 10, 30 nM): 1.05 nM⁻¹
- Fold Change/nM (gene PSMD11, intron expression, 3, 10, 30 nM): 1.05 nM⁻¹
- Fold Change/nM (gene RANGAP1, intron expression, 3, 10, 30 nM): 1.05 nM⁻¹
- Fold Change/nM (gene RARA, intron expression, 3, 10, 30 nM): 1.05 nM⁻¹
- Fold Change/nM (gene RBM23 // C9orf102, intron expression, 3, 10, 30 nM): 1.05 nM⁻¹
- Fold Change/nM (gene SETD5, intron expression, 3, 10, 30 nM): 1.05 nM⁻¹
- Fold Change/nM (gene SF3B1, intron expression, 3, 10, 30 nM): 1.05 nM⁻¹
- Fold Change/nM (gene SF3B2, intron expression, 3, 10, 30 nM): 1.05 nM⁻¹
- Fold Change/nM (gene SFPQ, intron expression, 3, 10, 30 nM): 1.05 nM⁻¹
- Fold Change/nM (gene SFRS2IP introns, regression over control, 3, 10, 30 nM): 1.05 nM⁻¹
- Fold Change/nM (gene SFRS3, intron expression, 3, 10, 30 nM): 1.05 nM⁻¹
- Fold Change/nM (gene SLFN11, intron expression, 3, 10, 30 nM): 1.05 nM⁻¹
- Fold Change/nM (gene ST8SIA4 introns, regression over control, 3, 10, 30 nM): 1.05 nM⁻¹
- Fold Change/nM (gene STX6, intron expression, 3, 10, 30 nM): 1.05 nM⁻¹
- Fold Change/nM (gene SUPV3L1 introns, regression over control, 3, 10, 30 nM): 1.05 nM⁻¹
- Fold Change/nM (gene THRAP1 introns, regression over control, 3, 10, 30 nM): 1.05 nM⁻¹
- Fold Change/nM (gene TLR4, intron expression, 3, 10, 30 nM): 1.05 nM⁻¹
- Fold Change/nM (gene TMEM1, intron expression, 3, 10, 30 nM): 1.05 nM⁻¹
- Fold Change/nM (gene TMEM2, intron expression, 3, 10, 30 nM): 1.05 nM⁻¹
- Fold Change/nM (gene TNFSF8, intron expression, 3, 10, 30 nM): 1.05 nM⁻¹
- Fold Change/nM (gene TRAF3 introns, regression over control, 3, 10, 30 nM): 1.05 nM⁻¹
- Fold Change/nM (gene UBXD2 introns, regression over control, 3, 10, 30 nM): 1.05 nM⁻¹
- Fold Change/nM (gene USP4, intron expression, 3, 10, 30 nM): 1.05 nM⁻¹
- Fold Change/nM (gene USP38, intron expression, 3, 10, 30 nM): 1.05 nM⁻¹
- Fold Change/nM (gene USP47 introns, regression over control, 3, 10, 30 nM): 1.05 nM⁻¹
- Fold Change/nM (gene YME1L1, intron expression, 3, 10, 30 nM): 1.05 nM⁻¹
- Fold Change/nM (gene ZNF267, intron expression, 3, 10, 30 nM): 1.05 nM⁻¹
- Fold Change/nM (introns of gene ACSL1, regression over control, 3, 10, 30 nM): 1.07 nM⁻¹
- Fold Change/nM (introns of gene BASP1, regression over control, 3, 10, 30 nM): 1.07 nM⁻¹
- Fold Change/nM (introns of gene CD2, regression over control, 3, 10, 30 nM): 1.07 nM⁻¹
- Fold Change/nM (introns of gene EIF2C2, regression over control, 3, 10, 30 nM): 1.07 nM⁻¹
- Fold Change/nM (introns of gene GCH1, regression over control, 3, 10, 30 nM): 1.07 nM⁻¹
- Fold Change/nM (introns of gene ITGAV, regression over control, 3, 10, 30 nM): 1.08 nM⁻¹
- Fold Change/nM (introns of gene NFKB1, regression over control, 3, 10, 30 nM): 1.07 nM⁻¹
- Fold Change/nM (introns of gene NUMB, regression over control, 3, 10, 30 nM): 1.07 nM⁻¹
- Fold Change/nM (introns of gene PRKCE, regression over control, 3, 10, 30 nM): 1.07 nM⁻¹
- Fold Change/nM (introns of gene PSMD3, regression over control, 3, 10, 30 nM): 1.07 nM⁻¹
- Fold Change/nM (introns of gene QKI, regression over control, 3, 10, 30 nM): 1.07 nM⁻¹
